Legend:
Assay in all cases: area under concentration-response curve (viability) (AUC (a.u.)); higher = less active
Settings in all cases: 48 h
CU-ACC2 = system: CU-ACC2
How it was run: (§1)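 Three adrenocortical carcinoma cell lines were seeded at 500–1,000 cells/well in 5 µL medium in 1,536-well plates. 23 nL of each MIPE 5.0 library compound was added at 11 concentrations. After 48 h (per the protocol name), CellTiter-Glo was added for 15 minutes at room temperature and luminescence was read. Signals were normalised per plate to vehicle and empty-well controls. AC50 and area under the curve came from fitted concentration-response curves, keeping only inhibitory or non-responding curve classes.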

CU-ACC1 = system: CU-ACC1
How it was run: as §1

NCI-H295R = system: NCI-H295R
How it was run: as §1

| SMILES | area under concentration-response curve (CU-ACC2) | area under concentration-response curve (CU-ACC1) | area under concentration-response curve (NCI-H295R) |
| --- | --- | --- | --- |
| CC[C@H](CC[C@@H](C)[C@H]1CC[C@H]2[C@@H]3C\C=C/4C[C@@H](O)CC[C@]4(C)[C@H]3CC[C@]12C)C(C)C | 396 | 413 | 421 |
| CN1C(=O)C(Cc2c[nH]c3ccccc23)NC1=S (centres undefined) | 639 | 543 | 568 |
| NC(=O)[C@@H](CC1CC1)[C@@H](CCC(F)(F)F)C(=O)N[C@H]2\N=C(C3=CC=CC=C3)/C4=CC=CC(=C4NC2=O)F | 573 | 543 | 541 |
| Cc1c(F)cccc1NC(=O)Nc1ccc(Cl)c([S+](=O)([O-])[C@H]2CCCNC2)c1O | 545 | 540 | 552 |
| C[C@H]1COC/2=C1/C(=O)C(=O)C3=C4CCCC(C)(C)C4=CC=C23 | 601 | 525 | 540 |
| CCCCNc1cc(C(=O)O)cc([S+](N)(=O)[O-])c1Oc1ccccc1 | 596 | 505 | 553 |
| COc1nc(C)cnc1N[S+](=O)([O-])c1cccnc1-c1ccc(-c2nnco2)cc1 | 600 | 520 | 509 |
| O=C(O)CNC(=O)C1C(=O)N(C2CCCCC2)C(=O)N(C2CCCCC2)C1=O | 483 | 473 | 479 |
| NC(=O)c1cccc(N)c1 | 656 | 582 | 595 |
| CC(C)OC1=C(F)C=C(C=C1)C2=N[N]([C@@H](C)C/3=C(C4=CC(=CC=C4)F)/C(=O)C5=CC(=CC=C5O3)F)C6=C2C(=NC=N6)N | 641 | 516 | 547 |
| COC(c1ccccc1)(c1ccccc1)[C@H](Oc1nc(C)cc(C)n1)C(=O)O | 586 | 531 | 578 |
| O=C(O)C[C@H]1CC[C@H](c2ccc(-c3ccc(Nc4ccc(C(F)(F)F)nc4)cn3)cc2)CC1 | 580 | 504 | 538 |
| OC1=CC=C(C=C1)\C2=C(O)\C(=O)C3=C(O2)C=C(O)C=C3O | 451 | 481 | 484 |
| CCn1nc(C2CCN(C(=O)CCO)CC2)nc1-c1cnc(N)c(-c2nnc(C(C)(C)C)o2)n1 | 504 | 387 | 507 |
| CC[C@@]1(O)C(=O)OCC/2=C1/C=C/3N(CC4=C(CCNC(C)C)C5=CC=CC=C5N=C34)C2=O | 611 | 538 | 654 |
| C[N+](C)([O-])CCNc1ccc(NCC[N+](C)(C)[O-])c2c1C(=O)c1c(O)ccc(O)c1C2=O | 540 | 505 | 496 |
| C[C@@H](O)[C@@H]1NC(=O)[C@H](CCCCN)NC(=O)[C@@H](Cc2c[nH]c3ccccc23)NC(=O)[C@H](Cc2ccccc2)NC(=O)[C@@H](NC(=O)[C@H](N)Cc2ccccc2)CSSC[C@@H](C(=O)N[C@H](CO)[C@@H](C)O)NC1=O | 648 |  | 612 |
| Cc1cc(-c2cc(OC(=O)c3ccccc3)ccc2Cl)cc2nnc(Nc3ccc(OCCN4CCCC4)cc3)nc12 | 664 |  | 612 |
| Cc1cnc(-c2ccccc2C(C)C)nc1NCc1ccc(-n2ccnn2)cc1 | 614 |  | 563 |

Source: the supplement of paper PMC10949913
